According to US6855728B2, “Small-molecule modulators of hepatocyte growth factor / scatter factor activities” (North Shore-Long Island Jewish Health System, priority 2001, dated 2005):

How the values were obtained:
[1] = tested on: DU145 cells; assay: Clonogenic assay; assay type: cell-based; settings: clonogenic assay over 7 days
Procedure: The effect of (4-(2-chloro-6-fluorobenzyl)-3,5-dimethyl-1H-pyrazole-1-yl)(3-(2,6-dichlorophenyl)-5-methylisoxazol-4-yl)methanone (FIG. 7) and 1-(4-chloro-3-methylphenyl)-3-(2,6-dichlorophenyl)-prop-2-en-1-one were evaluated in a clonogenic assay over 7 days.

[2] = tested on: HGF/SF induced proliferation of HUVEC; assay: Endothelial cell (HUVEC) proliferation assay in the presence of exogenously-added HGF/SF; assay type: cell-based, human; settings: with HGF/SF; for inhibition at 2 µg/mL / inhibition at 6 µg/mL: Homo sapiens; for inhibition at 2 µg/mL: read-out: Activity at 2 microgram/ml With HGF/SF: inhibition (blocked SF); for inhibition at 6 µg/mL: read-out: Activity at 6 microgram/ml With HGF/SF: inhibition (blocked SF)
Source text: To evaluate inhibitors of activity, compounds may be evaluated directly for anti-proliferative activities, such as the inhibition of cellular proliferation, inhibition of tumor growth, inhibition of scatter, and inhibition of gene expression, and may also be evaluated on their ability to inhibit activity when exposed to cells together with. In such instances, the scatter and/or proliferative activities induced by added will be inhibited by the attendant presence of an inhibitory compound of the invention.
(§1) Cell proliferation assays Endothelial cells (HUVECs) were seeded in 48 well plates at a density of 10,000 to 20,000 cells per well in the normal growth medium (EGM-2-Clonetics) containing 2% fetal bovine serum, FGF, VEGF, IGF, ascorbic acid, EGF, GA, heparin and hydrocortisone. The cells were grown normally in the growth medium for 24 hr at 37 degrees C. and 5% CO2. The cells were then rinsed with RPMI-1% BSA and starved for 1-2 hrs. The stock solutions of all the compounds were made at a concentration of 10 mg/ml in DMSO and diluted in RPMI-1% BSA at a final concentrations of 1 to 12 microgram/ml. The cells were then washed and treated with the compounds and incubated for another 24 hr at 37 degrees C. Then ^3H thymidine (0.5 microgram/ml in RPMI-BSA) was added to the cells and incubated at 37 degrees C. for 4 to 5 hours. The unincorporated thymidine was removed by washing the cells four times with 1× PBS. Then the cells were lysed with 0.5M NaOH for 30 min and the radioactivity counted in the beta counter.

[3] = tested on: Endothelial cells (HUVECs); assay: Endothelial cell (HUVEC) proliferation assay, 3H thymidine incorporation, compound without added growth factor; assay type: cell-based, human
Procedure: as §1, with “counter. […]” for “counter.”

[4] = tested on: growth of blood vessels from subcutaneous tissue into Matrigel; assay: In vivo blood vessel ingrowth assay (Matrigel); settings: mice, Matrigel mixed with compound injected subcutaneously, 10 days
Procedure: Angiogenesis was assayed as growth of blood vessels from subcutaneous tissue into a solid gel of basement membrane containing the test compound. Matrigel in liquid form (0.5 ml) was mixed with a compound of the invention, or basic fibroblast growth factor as a control, and injected into the abdominal subcutaneous tissue of mice as previously described (Kibbey, M. C., Grant, D. S. Auerbach, R. and Kleinman, H. K. [1992] Role of the SIKVAV site of laminin in promotion of angiogenesis and tumor growth: an in vivo Matrigel model. J. Natl. Can. Inst. 84, 1633-38). After 10 days, mice were sacrificed and the Matrigel plugs were removed, fixed, sectioned, stained and examined for ingrowth of blood vessels.

[5] = tested on: MDCK cells exposed to adriamycin; assay: Anti-apoptotic activity assay (MTT viability, adriamycin-induced apoptosis); assay type: cell-based
[6] = tested on: VEGF-like activity; assay: Screen for VEGF-like activity in a standard assay; assay type: cell-based; settings: for VEGF-like activity: 2 microgram/ml compound
Source text: Compounds were screened for VEGF-like activity in a standard assay using 2 microgram/ml compound.

[7] = 2 microgram/ml, inhibition of HUVEC proliferation
[8] = 6 microgram/ml, inhibition of HUVEC proliferation
[9] = Homo sapiens, 2 microgram/ml, without HGF/SF, inhibition of HUVEC proliferation

Compound: Cc1nn(C(=O)c2c(-c3c(Cl)cccc3Cl)noc2C)c(C)c1Cc1c(F)cccc1Cl [(4-(2-chloro-6-fluorobenzyl)-3,5-dimethyl-1H-pyrazole-1-yl)(3-(2,6-dichlorophenyl)-5-methylisoxazol-4-yl)methanone]
- DU145 cell growth [1]: dose responsive inhibition
- inhibition at 2 µg/mL [2, 7]: 40 to 90%
- inhibition at 6 µg/mL [2, 8]: 50 to 100%
- Activity at 2 microgram/ml Without HGF/SF (result in words) ([3]; 2 microgram/ml, without HGF/SF): No effect
- ingrowth of blood vessels into Matrigel plug [4]: significant stimulation of blood vessel ingrowth

Compound: COc1cccc2c1C(=O)c1c(O)c3c(c(O)c1C2=O)C[C@@](O)(C(=O)CO)C[C@@H]3O[C@H]1C[C@H](N)[C@H](O)[C@H](C)O1 [Adriamycin, reference compound]
- cell viability ([5]; Adriamycin (15 µM)): 56 % of control

Compound: Cc1onc(-c2c(Cl)cccc2Cl)c1C(=O)NN(C)c1ccc([N+](=O)[O-])cn1 [N′4,5-dimethyl-N′4-(5-nitro-2-pyridyl)-3-(2,6-dichlorophenyl)isoxazole-4-carbohydrazide]
- Activity at 2 microgram/ml With HGF/SF (result in words) ([2]; 2 microgram/ml): No effect
- inhibition at 6 µg/mL [2, 8]: 43%
- Activity at 2 microgram/ml Without HGF/SF (result in words) ([3]; 2 microgram/ml, without HGF/SF): No effect
- Activity at 6 microgram/ml Without HGF/SF (result in words) ([3]; 6 microgram/ml, without HGF/SF): No effect

Compound: Cc1onc(-c2c(Cl)cccc2Cl)c1C(=O)NN(C)C [N′4,N′4,5-trimethyl-3-(2,6-dichlorophenyl)isoxazole-4-carbohydrazide]
- Activity at 2 microgram/ml With HGF/SF (result in words) ([2]; 2 microgram/ml): No effect
- inhibition at 6 µg/mL [2, 8]: 40%
- Activity at 2 microgram/ml Without HGF/SF (result in words) ([3]; 2 microgram/ml, without HGF/SF): No effect
- Activity at 6 microgram/ml Without HGF/SF (result in words) ([3]; 6 microgram/ml, without HGF/SF): No effect

Compound: Cc1onc(-c2c(Cl)cccc2Cl)c1C(=O)NNc1c(Cl)cc(Cl)cc1Cl [N′4-(2,4,6-trichlorophenyl)-3-3(2,6-dichlorophenyl)-5-methylisoxazole-4-carbohydrazide]
- Activity at 2 microgram/ml With HGF/SF (result in words) ([2]; 2 microgram/ml): No effect
- Activity at 6 microgram/ml With HGF/SF: inhibition (blocked SF) [2, 8]: 60%
- Activity at 2 microgram/ml Without HGF/SF (result in words) ([3]; 2 microgram/ml, without HGF/SF): No effect
- Activity at 6 microgram/ml Without HGF/SF (result in words) ([3]; 6 microgram/ml, without HGF/SF): No effect

Compound: Cc1onc(-c2c(Cl)cccc2Cl)c1C(=O)NNC(=O)CON=Cc1ccc(Cl)cc1Cl [N′4-(2-(((2,4-dichlorobenzylidene)amino)oxy)acetyl)-3-(2,6-dichlorophenyl)-5-methylisoxazole-4-carbohydrazide]
- Activity at 2 microgram/ml With HGF/SF: stimulation ([2]; 2 microgram/ml, stimulation of HUVEC proliferation): 30%
- Activity at 6 microgram/ml With HGF/SF (result in words) ([2]; 6 microgram/ml): No effect
- Activity at 2 microgram/ml Without HGF/SF: stimulation ([3]; 2 microgram/ml, without HGF/SF, stimulation of HUVEC proliferation): 32%
- Activity at 6 microgram/ml Without HGF/SF (result in words) ([3]; 6 microgram/ml, without HGF/SF): No effect

Compound: CCOC(CC(=O)NNC(=O)c1c(-c2c(Cl)cccc2Cl)noc1C)OCC [N′4-(3,3-diethoxypropanoyl)-3-(2,6-dichlorophenyl)-5-methylisoxazole-4-carbohydrazide]
- Activity at 2 microgram/ml With HGF/SF (result in words) ([2]; 2 microgram/ml): No effect
- inhibition at 6 µg/mL [2, 8]: 35%
- Activity at 2 microgram/ml Without HGF/SF (result in words) ([3]; 2 microgram/ml, without HGF/SF): No effect
- Activity at 6 microgram/ml Without HGF/SF (result in words) ([3]; 6 microgram/ml, without HGF/SF): No effect

Compound: Cc1onc(-c2c(Cl)cccc2Cl)c1C(=O)NNc1c(Cl)cncc1Cl [N′4-(3,5-dichloro-4-pyridyl)-3-(2,6-dichlorophenyl)-5-methylisoxazole-4-carbohydrazide]
- inhibition at 2 µg/mL [2, 7]: 25%
- inhibition at 6 µg/mL [2, 8]: 25%
- Activity at 2 microgram/ml Without HGF/SF (result in words) ([3]; 2 microgram/ml, without HGF/SF): No effect
- Activity at 6 microgram/ml Without HGF/SF (result in words) ([3]; 6 microgram/ml, without HGF/SF): No effect

Compound: COc1cc(CCC(=O)NNC(=O)c2c(-c3c(Cl)cccc3Cl)noc2C)cc(OC)c1OC [N′4-(3-(3,4,5-trimethoxyphenyl)propanoyl)-3-(2,6-dichlorophenyl)-5-methylisoxazole-4-carbohydrazide]
- inhibition at 2 µg/mL [2, 7]: 50%
- Activity at 6 microgram/ml Without HGF/SF (result in words) ([3]; 6 microgram/ml, without HGF/SF): Cytotoxic
- inhibition at 2 µg/mL [3, 9]: 50%

Compound: Cc1onc(-c2c(Cl)cccc2Cl)c1C(=O)NNc1cccc(C(F)(F)F)n1 [N′4-(6-(trifluoromethyl)-2-pyridyl)-3-(2,6-dichlorophenyl)-5-methylisoxazole-4-carbohydrazide]
- inhibition at 2 µg/mL [2, 7]: 50%
- inhibition at 6 µg/mL [2, 8]: 80%
- inhibition at 2 µg/mL [3, 9]: 40%
- inhibition at 6 µg/mL ([3]; Homo sapiens, 6 microgram/ml, without HGF/SF, inhibition of HUVEC proliferation): 50%

Compound: Cc1nc(C(=O)NNC(=O)c2c(-c3c(Cl)cccc3Cl)noc2C)cs1 [N′4-((2-methyl-1,3-thiazol-4-4yl)carbonyl)-3-(2,6-dichlorophenyl)-5-methylisoxazole-4-4carbohydrazide]
- Activity at 2 microgram/ml With HGF/SF: inhibition (blocked SF) [2, 7]: 50%
- Activity at 6 microgram/ml With HGF/SF: inhibition (blocked SF) [2, 8]: 50%
- Activity at 2 microgram/ml Without HGF/SF (result in words) ([3]; 2 microgram/ml, without HGF/SF): No effect
- Activity at 6 microgram/ml Without HGF/SF: stimulation ([3]; 6 microgram/ml, without HGF/SF, stimulation of HUVEC proliferation): 52%

Compound: Cc1onc(-c2c(Cl)cccc2Cl)c1C(=O)NNc1ccccc1 [N′4-phenyl-3-(2,6-dichlorophenyl)-5-methylisoxazole-4-carbohydrazide]
- inhibition at 2 µg/mL [2, 7]: 40%
- inhibition at 6 µg/mL [2, 8]: 80%
- Activity at 2 microgram/ml Without HGF/SF (result in words) ([3]; 2 microgram/ml, without HGF/SF): No effect
- Activity at 6 microgram/ml Without HGF/SF (result in words) ([3]; 6 microgram/ml, without HGF/SF): No effect

Compound: O=C1c2ccccc2N(c2ccccc2)C(=O)C1(Br)Br [VC8, 3,3-dibromo-1-phenyl-1,2,3,4-tetrahydroquinoline-2,4-dione]
- VEGF-like activity [6]: positive activity

Compound: CN(C)c1nc(-c2ccccc2)nc(-c2ccc(Cl)cc2)c1C#N [VC14, 4-(4-chlorophenyl)-6-(dimethylamino)-2-phenyl-5-pyrimidinecarbonitrile]
- VEGF-like activity [6]: positive activity

Compound: c1ccc(-c2cc(-c3ccccc3)c(-c3ccccc3)c(-c3ccccc3)c2-c2ccccc2)cc1 [pentaphenylbenzene]
- Inhibition at 6-12 micrograms/ml With ([2]; 6-12 micrograms/ml, inhibition of endothelial cell proliferation): 50% inhibition
- Stimulation at 6-12 micrograms/ml Without HGF/SF ([3]; 6-12 micrograms/ml, without HGF/SF, stimulation of endothelial cell proliferation): two to three fold stimulation

Compound: c1ccc(-c2sc(-c3ccccc3)c(-c3ccccc3)c2-c2ccccc2)cc1 [tetraphenylthiophene]
- Stimulation/Inhibition at 6-12 micrograms/ml With (result in words) ([2]; 6-12 micrograms/ml): No effect
- Inhibition at 6-12 micrograms/ml Without HGF/SF ([3]; 6-12 micrograms/ml, without HGF/SF, inhibition of endothelial cell proliferation): 50% inhibition

Compound: HGF/SF: hepatocyte growth factor/scatter factor, pleiotropic growth factor; evaluated as a positive control
- protection from adriamycin-induced apoptosis ([5]; MDCK cells): 94%
- cell viability, substance alone ([5]; without adriamycin): unchanged
- effect on HUVEC proliferation, substance alone (FIG. 5) [3]: increases the proliferation of HUVEC

Compound: VEGF
- activity of VEGF in the VEGF-like activity assay [6]: 1259±104 cpm
